Measured values reported in article PMC6045899 (International Journal of Nanomedicine, 2018).

Columns and labels:
AMI rats = system: AMI rats; design: species or system Sprague Dawley rats; conditions: rat, in vivo, 50 mg/kg
[1] = In vivo pharmacokinetics after iv administration in AMI rats; conditions: plasma concentration–time profile
[2] = system: PC cells (primary cardiac cells); assay: In vitro cytotoxicity, MTT bioassay; assay type: cell-based, Wistar rats; conditions: 1–200 μM, 24 h

SMILES: Cc1coc2c1C(=O)C(=O)c1c-2ccc2c1CCCC2(C)C [Free TN, tanshinone IIA]
- infarct size (percentage of whole size of the left ventricle) (AMI rats): 51%±1.8%
- time within which cleared from the circulation [1]: ≤ 6 h
- in vitro cytotoxicity (in words) [2]: obvious higher cytotoxicity than the nanocarriers in high concentrations (100 and 200 μM)
